From patent publication US20250059139A1, “COMPOUNDS FOR TREATMENT OF CANCER” (THE JOHNS HOPKINS UNIVERSITY, priority 2021, published 2025)
Like-named read-outs stand apart in the source and are kept apart here.

What was measured:
[1] = biological target: T1, fl-R681A/R798A double mutant HDAC4 / fl-NCoR1 (Homo sapiens, UniProt P56524, R681A/R798A); assay: SPR inhibition of fl-R681A/R798A double mutant HDAC4 binding to fl-NCoR1; conditions: plateau at 2 μM TasQ
T1 construct: Full-length (fl) [A.A. 1-1082] recombinant human histone deacetylase 4 (rhHDAC4) protein; FLAG (N); GST (given as 'with or without'); host or cells: HEK293-T (HDAC4)
Protocol: (§1) Surface Plasmon Resonance (SPR) Binding Analysis. SPR analysis was performed on the Biacore 3000™ system using CM5 sensor chips, certified buffers (HBS-P—10 mM HEPES, 0.15 M NaCl, pH 7.4, containing 0.005% v/v Surfactant P; HBS-EP-HBS-P with 3 mM EDTA) and reagents for immobilization and surface regeneration from Biacore, GE Healthcare, Uppsala Sweden. Evaluation of sensorgrams was performed using the BIA-evaluation Software version 4.1 and GraphPad Prism 4. Buffer of protein reagents were changed to HBS-P on Zeba spin desalting columns (Thermo Scientific) prior to being used in SPR analysis (Isaacs 2013).
C. Inhibition of HDAC4-NCoR1 interaction by TasQ. The interaction between HDAC4 and NCoR1 was studied either by injecting NCoR over immobilized HDAC4 or with an alternative orientation where HDAC4 was passed over a surface with covalently coupled NCoR1. Whether TasQ can inhibit the formation of the functional HDAC4-NCoR1 complex was tested by pre-incubation with NCoR1 or HDAC4.
These additional analyses again documented high-affinity binding of the wild-type fl-HDAC4 protein to fl-NCoR1 with such binding being competed by pre-incubation with TasQ in solution (FIG. 21).

fl-HDAC4 (wild-type) = biological target: T2, fl-HDAC4 (wild-type) (Homo sapiens, UniProt P56524); assay: SPR binding analysis TasQ / fl-HDAC4
T2 construct: Full-length (fl) [A.A. 1-1082] recombinant human histone deacetylase 4 (rhHDAC4) protein; FLAG (N); GST (given as 'with or without'); made in house; host or cells: HEK293-T
Protocol: as §1
A. Binding of wild-type and mutant forms of HDAC4 to immobilized TasQ. TasQ (ABR-215050; mol wt 406.4) was dissolved as a 40 mM solution in water with 1.5 equivalents of NaOH. TasQ with an amino-linker [i.e. —(CH2)2O(CH2)2—NH2](ABR-225180) in amide nitrogen position was used for amine coupling on to a Biacore CM5 sensor chip. A 1 mg/mL solution of ABR-225180 in HBS-P buffer was prepared and immobilized on a CM5 chip by injection at a flow rate of 5 or 10 μL/min until a stable response level was reached. Interaction of various HDAC4 forms with immobilized TasQ was studied by injection over this surface in HBS-P buffer containing 10 or 20 μM ZnCl2. Bound HDAC4 was removed by a pulse of 3 mM EDTA in HBS-P or 0.5 to 6.25 mM NaOH in water. In a second series of experiments, the ability of TasQ in solution to displace this binding was studied by pre-incubation of HDAC4 with TasQ as competitor.
B. Binding of TasQ to immobilized HDAC4 and NCoR1. Different variants of HDAC4 (full-length wild-type and mutant forms and the truncated protein) and full-length NCoR1 were immobilized on a CM5 chip using random amine coupling. Briefly, proteins were dissolved in 10 mM sodium acetate buffer at pH 5.0 or 5.5 and immobilized to the aimed level using the standard protocol from GE Healthcare. Serially diluted TasQ in HBS-P buffer with 10 or 20 μM Zn was injected (for 2 or 3 min at a flow rate of 30 μl/min) either directly or after a 1st injection of 1 mM DTT to reduce cysteines in the zinc conformation site in HDAC4. Regeneration was made with a short pulse of HBS-EP.
To evaluate the conformational requirements for TasQ's binding to HDAC4, surface plasmon resonance (SPR) analysis was utilized. To maximize conformational flexibility, TasQ is immobilized onto the surface of a Biacore CM5 sensor chip via an amino-linker [i.e. —(CH2)2—O—(CH2)2—NH2] in its amide nitrogen position.
By comparison, Linomide even at >30 μM in solution binds only 10-15% of the immobilized fl-HDAC4 protein despite the presence of Zn^+2 (FIG. 14). […] The fact that the KD for binding of soluble TasQ to immobilized fl-HDAC4 is higher than the KD for binding of soluble fl-HDAC4 with immobilized TasQ is predictable. This is because the conformational dynamics of fl-HDAC4 protein immobilized on the chip are more restrictive due to the multiple random amine coupling than the conformational dynamics of TasQ immobilized via a single amino-linker.
To address this possibility, a competitive binding assay was developed based upon the ability of TasQ in solution to compete with immobilized TasQ on the SPR-chip for binding to fl-HDAC4.

panel of 68 kinases = assay: Targeted kinase screen (Kinase Profiling Service, Thermo Fisher Scientific); type: biochemical; conditions: 10 μM
Protocol: Targeted kinase screen. Inhibition of enzymatic activity of a panel of kinases in the presence of 10 μM ESATA-20 was analyzed by the Kinase Profiling Service at Thermo Fisher Scientific.

T2 sequence (P56524 whole entry): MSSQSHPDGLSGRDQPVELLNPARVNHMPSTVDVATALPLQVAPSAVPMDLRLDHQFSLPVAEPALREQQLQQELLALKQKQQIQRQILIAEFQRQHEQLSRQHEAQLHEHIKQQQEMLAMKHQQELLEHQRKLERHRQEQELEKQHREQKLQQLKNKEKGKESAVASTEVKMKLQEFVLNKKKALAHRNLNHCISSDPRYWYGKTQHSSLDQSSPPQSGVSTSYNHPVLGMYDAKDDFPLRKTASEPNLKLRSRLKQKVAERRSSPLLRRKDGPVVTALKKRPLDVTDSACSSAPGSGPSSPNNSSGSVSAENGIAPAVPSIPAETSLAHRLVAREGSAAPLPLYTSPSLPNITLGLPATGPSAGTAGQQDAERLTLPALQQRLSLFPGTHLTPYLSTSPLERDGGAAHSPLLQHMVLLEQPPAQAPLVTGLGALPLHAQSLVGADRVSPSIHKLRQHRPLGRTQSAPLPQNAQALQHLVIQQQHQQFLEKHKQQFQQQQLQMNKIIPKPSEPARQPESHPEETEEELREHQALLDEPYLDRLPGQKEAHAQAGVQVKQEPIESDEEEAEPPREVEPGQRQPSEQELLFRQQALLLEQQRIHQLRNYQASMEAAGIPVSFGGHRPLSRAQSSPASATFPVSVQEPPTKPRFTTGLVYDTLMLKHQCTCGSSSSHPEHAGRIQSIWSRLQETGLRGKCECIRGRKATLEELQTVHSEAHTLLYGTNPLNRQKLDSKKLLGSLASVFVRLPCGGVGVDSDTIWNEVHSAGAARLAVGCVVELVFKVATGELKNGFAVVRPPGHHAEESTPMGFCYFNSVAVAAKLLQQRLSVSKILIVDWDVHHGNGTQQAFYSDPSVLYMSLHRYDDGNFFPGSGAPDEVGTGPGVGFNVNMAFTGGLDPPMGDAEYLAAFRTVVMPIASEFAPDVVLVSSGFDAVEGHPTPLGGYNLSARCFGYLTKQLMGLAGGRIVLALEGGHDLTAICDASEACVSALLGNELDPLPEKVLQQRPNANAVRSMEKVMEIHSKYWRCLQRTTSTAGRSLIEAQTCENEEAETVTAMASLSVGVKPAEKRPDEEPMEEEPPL
T1 sequence (P56524 whole entry R681A/R798A): as the sequence (P56524 whole entry) above, with R681A, R798A counted along it

Row | Structure (SMILES) | inhibition at 2 µM [1] [%] | IC50 (fl-HDAC4 (wild-type); competitive SPR assay, read-out: IC50 of TasQ in solution to reduce binding of fl-wild-type HDAC4 to immobilized TasQ) [nM] | Kd (fl-HDAC4 (wild-type); compound in solution, immobilized fl-HDAC4, n=4, read-out: KD) [nM] | Kd (fl-HDAC4 (wild-type); fl-HDAC4 in solution, immobilized amine-linked TasQ, Zn2+, read-out: KD calculated from the on- and off-rates) [nM] | Kd (fl-HDAC4 (wild-type); fl-HDAC4 in solution, immobilized amine-linked TasQ, Zn2+, read-out: KD from the steady state dose-response curve) [nM] | change in activity in any of the 68 kinases tested (panel of 68 kinases) [%]
1 | COc1cccc2c1c(O)c(C(=O)N(C)c1ccc(C(F)(F)F)cc1)c(=O)n2C [TasQ, Tasquinimod] | < 35 | 1300 | 4900 | ~20 | ~130 | 
2 | COc1cccc2c1c(O)c(C(=O)N(c1ccc(C(F)(F)F)cc1)C1CCCCC1)c(=O)n2C [ESATA-20] |  |  |  |  |  | < 15
